Patent US6541483B2, “Acridone-derived compounds useful as antineoplastic and antiretroviral agents” (The United States of America as represented by the …, priority 1996, dated 2003)
Like-named read-outs stand apart in the source and are kept apart here.

Tests used:
[1] = test system: CEM-SS cells; assay: XTT assay toxicity in CEM-SS cells (IC50); type: cell-based; conditions: for IC50: Homo sapiens, CEM-SS cells
Description: Briefly, the infected cells in culture are killed by the virus, and the cytotoxicity is detected by the formation of color due to the […] of a formazan dye (XTT) by enzymes released by the dying cells (Weislow et al., J. Natl. Cancer Inst. 81:577-586, 1989). An effective antiviral drug is able to protect the infected cells from cytotoxicity by inhibiting some vital function of the virus. […] FIGS. 4 and 5 show the cytoprotective activity of WMC26 and WMC42. Since many drugs can also be toxic to cells in their own right, a parallel experiment is carried out wherein uninfected cells are treated with the drugs until a concentration is reached where the cells are killed by the action of the drug.
As a result of these preliminary data, additional experiments were carried out to establish the antiviral activity in other cell lines, using a variety of protocols. The preliminary experiments in lymphocytes were confirmed using infected macrophages. Much more extensive experiments were carried out in HIV-1-infected CEM SS leukemia cells. […] However, two derivatives were found which had low antileukemic activity while maintaining high antiviral activity. […] This gives a therapeutic index of more than 3 orders of magnitude. The corresponding therapeutic index for WMC50 is about 100-200, which is quite acceptable. Additional experiments were carried out on WMC-70. […] Further, WMC-70 appears to affect post-transcription events in the virus. […] While the inhibition of integration appears to be the principal mechanism by which this compound exerts its antiviral activity, there are perhaps other mechanisms which are also involved in the therapeutic action of this drug, and by extension, of other antiviral drugs of this class.
(§1) The antiviral properties of the WMC series of compounds were evaluated. First, all compounds were tested for their ability to inhibit HIV-1 replication in cell culture using the XTT cytoprotection assay. This assay measures the concentration-dependent capacity of compounds to protect CEM-SS cells from the cytopathic effects of HIV-1. […] Thus, temacrazine was the most efficacious compound in the XTT cytoprotection assay. This conclusion was also reached when the compounds were tested for anti-HIV-1 activity against HIV-1ADA in human monocyte/macrophage cultures (Table 1).

[2] = test system: HIV-1ADA; assay: anti-HIV-1 activity in monocyte/macrophage cultures; type: cell-based; conditions: Human immunodeficiency virus 1; HIV-1ADA, human monocyte/macrophage cultures; read-out: Mo/Mφ EC50
Method: as §1

[3] = test system: HIV-1RF; assay: nude mouse hollow fiber model of HIV-1 replication; type: in vivo, nude mice
Description: The novel mechanism of action of temacrazine and its broad range of activity against HIV-1 and its high therapeutic indexes led us to assess its in vivo and anti-viral properties in a nude mouse hollow fiber model of HIV-1 replication. Briefly, CEM-SS cells are infected with HIV-1RF and placed into hollow fibers and implanted intraperitoneal or subcutaneously into nude mice. […] Similarly, mice are being treated by oral and intravenous administration of temacrazine. Peritoneal washes and serum samples were collected and p24 expression determined by antigen capture. Intraperitoneal administration of temacrazine reduced the amount of detectable p24 in peritoneal washes by 5 to 10 fold independently of the dosage schedule. […] Thus, temacrazine reduces HIV-1 replication in vivo.

[4] = test system: HIV-1 specific mRNA; assay: Northern blotting of total HIV-1 mRNA in U-1 cells; type: cell-based; conditions: TNFα stimulated U-1 cells
Description: To assess the possibility that temacrazine was regulating HIV-1 mRNA expression, the expression of total HIV-1 mRNA by Northern blotting was examined (FIG. 16).

[5] = test system: U1 cells; assay: viability of U1 cells; type: cell-based; conditions: 48 h
Method: As a model of the late phase events during the HIV-1 replication cycle, U1 cells were used that are latently infected with two copies of HIV-1 proviral DNA. The high level expression of virus production in these U1 cells can be stimulated by certain factors, such as TNF-α. U1 cells were stimulated with TNF-α for 24 hours, after which were added various concentrations of temacrazine, and the cultures were allowed to incubate for 48 additional hours. At that time, the cells were evaluated for viability and for their content of viral protein synthesis and processing, while the cell-free supernatant was evaluated for viral p24 content and for the infectious titer of released virions. […] Cell viability was diminished above 30 nM with these U1 cells.

[6] = test system: CEM-SS cells; assay: 3H precursor incorporation in CEM-SS cells; type: cell-based
[7] = target: HIV-1 reverse transcriptase (Human immunodeficiency virus type 1 group M subtype B, UniProt P04585); assay: reverse transcriptase enzyme activity; type: biochemical
Description: Based on the findings thus far our efforts have focused on biological assays of the temacrazine congener.

[8] = test system: human monocyte/macrophage cultures; assay: toxicity in monocyte/macrophage cultures; type: cell-based; conditions: human monocyte/macrophage cultures; read-out: Mo/Mφ IC50
Method: as §1

[9] = test system: HIV-1 in U1 cells; assay: TNF-α stimulated latently infected U1 cells, virus production; type: cell-based
Method: As a model of the late phase events during the HIV-1 replication cycle, U1 cells were used that are latently infected with two copies of HIV-1 proviral DNA. The high level expression of virus production in these U1 cells can be stimulated by certain factors, such as TNF-α. U1 cells were stimulated with TNF-α for 24 hours, after which were added various concentrations of temacrazine, and the cultures were allowed to incubate for 48 additional hours. At that time, the cells were evaluated for viability and for their content of viral protein synthesis and processing, while the cell-free supernatant was evaluated for viral p24 content and for the infectious titer of released virions.
After TNFα induction and temacrazine treatment, cultures were continued for 72 h after which virion-associated p24 and cell viability (XTT dye reduction) were measured.

[10] = 8.5 mg/kg q8h intraperitoneally
[11] = 12.5 mg/kg q12h intraperitoneally
[12] = 25 mg/kg q24h intraperitoneally

## O=c1c2ccccc2n2nnc3ccc(NCCCN4CCN(CCCNc5ccc6nnn7c8ccccc8c(=O)c5c67)CC4)c1c32 [temacrazine]
[1]; CEM SS cells
  concentration at which the drug kills 50% of the cells: greater than micromolar concentrations
[1]; Table 1, read-out: XTT Assay IC50
  IC50: 2.77 µM
[1]; read-out: IC50 toxicity value, XTT assay
  IC50: 2.77 µM
[2]
  EC50: 0.01 µM
[3]; [10]
  Peritoneal Wash p24, mean: 460 pg p24
  Serum p24, mean: 1790 pg p24
[3]; [11]
  Peritoneal Wash p24, mean: 190 pg p24
  Serum p24, mean: 1863 pg p24
[3]; [12]
  Peritoneal Wash p24, mean: 593 pg p24
  Serum p24, mean: 2030 pg p24
[3]; intraperitoneal, total 25 mg/kg per day for 6 days
  p24 in the serum: reduced the amount of p24 in the serum
[3]; intraperitoneal, total 25 mg/kg per day for 6 days, any schedule
  reduction of detectable p24 in peritoneal washes: 5 to 10 fold
[4]; 1 nM
  HIV-1 specific mRNA production: decrease in single spliced and unspliced mRNA with no apparent decrease in the multi-spliced mRNA
[4]; 10 and 100 nM
  HIV-1 specific mRNA production: suppressed mRNA production globally
[5]
  concentration above which cell viability was diminished: above 30 nM
[6]
  incorporation of 3H Leucine (protein metabolism): no effect
  incorporation of 3H Thymidine (DNA replication): no effect
[6]; CEM-SS cells
  incorporation of 3H Uridine (RNA production): no effect
[7]
  IC50: > 100 µM
  inhibition of reverse transcriptase: did not inhibit
[7]; read-out: I50 RT Enzyme Activity, rAdT Template/primer
  IC50: > 100 µM
[7]; read-out: I50 RT Enzyme Activity, rCdG Template/primer
  IC50: > 100 µM
[8]
  IC50: 10 µM
[9]; 30 min. pulse of cultures
  production of infectious virus following stimulation with TNFα: presented subsequent production of infectious virus
[9]; Human immunodeficiency virus 1, U1 cells, 72 h, read-out: EC50, inhibition of HIV-1 virus replication (virion-associated p24)
  EC50: 0.01 to 0.1 µM
[9]; TNF-α 24 h, then drug 48 h
  infectivity of released viral particles (IU/ml): non-infectious
[9]; TNF-α 24 h, then drug 48 h, cell-free supernatant
  concentration at which virus production (p24) was inhibited: below 4 nM
[9]; cells with integrated virus (U1), Western blotting, listed as WMC-70
  processing of Gag precursor polyprotein (Pr55gag) to p24 and p7NC: no p24 can be detected
